Experiments:
[1] = tested on: Daudi human Burkitt’s Lymphoma cell line; experiment: Study 1: Daudi xenograft human Burkitt's lymphoma subcutaneous tumor model; type: in vivo, CB17 SCID mice; details: for GRI%: vs vehicle; for Tumor growth relative to vehicle-treated tumors (pairwise comparison): I-263a 7.5 mg/kg BIW, daratumumab 7.5 mg/kg BIW or both, data up to Day 22, p < 0.001
Procedure: (§1) Low tumor volumes can cause problems with the data analysis, so all measurements below 25 cubic mm (including 0 values) were excluded from the analysis. After this exclusion step, the tumor volume was assumed to follow an exponential growth model. More specifically, for a given animal and treatment group,
(§2) Pairwise comparisons were performed, where the mean growth rates were compared for various pairs of treatment conditions. The results were summarized using the growth rate inhibition (GRI). Suppose µT and µC are the mean tumor growth rates for the treatment and reference groups, respectively. Define
(§3) Here, µAB, µA, µB, and µControl are the mean growth rates for the combination, drug A, drug B, and control groups, respectively. As before, µv is the mean tumor growth rate for the vehicle group, which in most cases is the same as the control group. The standard error of the synergy score was calculated as the square root of the sum of squared standard errors across the four groups. The degrees of freedom were estimated using the Welch-Satterthwaite equation. A hypothesis test was performed to determine if the synergy score differed from 0. P-values were calculated by dividing the synergy score by its standard error and tested against a t-distribution (two-tailed) with the above-calculated degrees of freedom. A P value of less than 0.05 is statistically significant.
(§4) The combination results can be interpreted as follows. Statistically significant negative synergy scores indicate a synergistic combination (“Syn.”). Statistically significant positive synergy scores indicate a sub-additive combination (“Sub-add.”) when the combination performs better (i.e. has a lower growth rate) than the best performing single agent. Statistically significant positive synergy scores indicate an antagonistic combination (“Antag.”) when the combination performs worse than the best performing single agent. Scores that are not statistically significant should be considered additive (“Add.”).
Daudi is a human Burkitt’s Lymphoma cell line. A Daudi human xenograft tumor model was generated by subcutaneous inoculation with 2.0 […] 10^6 Daudi cells (cell suspension) in 6 weeks old female CB17 SCID mice (Charles River Laboratories, 251 Ballardvale St., Wilmington, MA) in the flank. When the mean tumor volume reached approximately 120 mm^3, the animals were randomized into one vehicle control and three treatment groups (n=8/group). Mice were then dosed with 20% HPβCD or Compound I-263a and/or daratumumab over a 21-day period. Tumor growth and body weight were measured twice per week during the treatment and post-treatment periods, and mice were humanely euthanized once they had reached their humane endpoint.
A 1.725 mg/mL and a 0.862 mg/mL stock solution of I-263a was formulated weekly in 20% HPβCD and administered intravenously (IV) based on an average body weight using a 0.2 mL dosing volume. Final doses I-263a received were 7.5 mg/kg. I-263a was administered on a BIW schedule for 3 weeks (Days 1, 4, 8, 11, 15, and 18). Daratumumab (anti-CD38 antibody) (Myoderm Medical Supplies, 48 E Main St., Norristown, PA 19401) was purchased at the beginning of the study and stored at 4° C. according to manufacturer’s instructions. Final dose daratumumab received was 7.5 mg/kg based on average body weight. Daratumumab was administered intraperitoneally (IP) using a 0.1 mL dosing volume, on a BIW schedule for 3 weeks (Days, 1, 4, 8, 11, 15, and 18).
(§5) Tumors were measured twice weekly using Vernier calipers. Tumor volumes were calculated using standard equation: V = W^2 x L/2, where V = volume, W = width, and L = length for the tumor. When mean tumor volumes reached approximately 120 mm^3, mice were randomized into control and treatment groups. Mice were randomized into 4 groups (n=8/group) and dosed with vehicle (20% HPβCD), I-263a, daratumumab, or the combination of I-263a plus daratumumab at doses and schedules described above. […]

[2] = tested on: A20-hCD38 mouse B-cell lymphoma cell line engineered to express the human CD38 cell surface protein; experiment: Study 2: A20-hCD38 syngeneic mouse tumor model; type: in vivo, Balb/c mice; details: for GRI%: vs vehicle; for Tumor growth relative to vehicle-treated tumors (pairwise comparison): I-263a 7.5 mg/kg QW or 15 mg/kg Q2W, daratumumab 20 mg/kg BIW, or I-263a plus daratumumab, data up to Day 15, p < 0.001
Procedure: as §1, §2, §3, §4
A20-hCD38 is a mouse B-cell lymphoma cell line engineered to express the human CD38 cell surface protein. An A20-hCD38 syngeneic mouse tumor model was generated by subcutaneous inoculation with 5.0 × 10^6 cells (cell suspension) in 6 weeks old female Balb/c mice (Jackson Laboratory, 10 Discovery Dr., Farmington, CT) in the flank. When the mean tumor volume reached approximately 70 mm^3, the animals were randomized into one vehicle control and five treatment groups (n=8/group). Mice were dosed with 20% HPβCD or Compound I-263a or daratumumab over a 28-day period. Tumor growth and body weight were measured twice per week during the treatment and post-treatment periods, and mice were humanely euthanized once they had reached their humane endpoint.
A 1.575 mg/mL and a 0.788 mg/mL stock solution of I-263a was formulated weekly in 20% HPβCD and administered IV based on an average body weight using a 0.2 mL dosing volume. Final doses I-263a received were 15 mg/kg or 7.5 mg/kg, respectively. I-263a was administered on a QW or Q2W schedule for 4 weeks (Days 1, 8, 15, and 22). Daratumumab (anti-CD38 antibody) (Myoderm Medical Supplies, 48 E Main St., Norristown, PA 19401) was purchased at the beginning of the study and stored at 4° C. according to manufacturer’s instructions. Final dose daratumumab received was 20 mg/kg based on average body weight. Daratumumab was administered intraperitoneally (IP) using a 0.1 mL dosing volume, on a BIW schedule for 4 weeks (Days 1, 4, 8, 11, 15, 18, 22 and 25).
as §5, with “W^2 ×” for “W^2 x”, “approximately 70” for “approximately 120”, “into 6” for “into 4”, “schedules as” for “schedules”

Compound	Tumor Volume on Day 22 (±SEM) ([1]; I-263a 7.5 mg/kg BIW IV)	GRI% ([1]; I-263a 7.5 mg/kg BIW IV)	Tumor growth relative to vehicle-treated tumors (pairwise comparison) [1]	Tumor volume on Day 15 (± SEM) ([2]; I-263a 7.5 mg/kg QW IV)	GRI% ([2]; I-263a 7.5 mg/kg QW IV)	Tumor growth relative to vehicle-treated tumors (pairwise comparison) [2]	Tumor volume on Day 15 (± SEM) ([2]; I-263a 15 mg/kg Q2W IV)	GRI% ([2]; I-263a 15 mg/kg Q2W IV)	Tumor Volume on Day 22 (±SEM) ([1]; Daratumumab 7.5 mg/kg BIW IP)	GRI% ([1]; Daratumumab 7.5 mg/kg BIW IP)	Tumor volume on Day 15 (± SEM) ([2]; Daratumumab 20 mg/kg BIW IP)	GRI% ([2]; Daratumumab 20 mg/kg BIW IP)
Cc1sc(C(=O)c2cncnc2N[C@@H]2C[C@H](COS(N)(=O)=O)[C@@H](O)C2)cc1[C@@H]1NCCc2ccc(Cl)cc21 [Compound I-263a, [(1R,2S,4R)-4-{[5-({4-[(1R)-7-chloro-1,2,3,4-tetrahydroisoquinolin-1-yl]-5-methyl-2-thienyl}carbonyl)pyrimidin-4-yl]amino}-2-hydroxycyclopentyl]methyl sulfamate]	1509.4 ± 109.1	15%	tumor growth inhibition	613.1 ± 179.3	37%	significant tumor growth inhibition	839.7 ± 229.7	24%				
Daratumumab: immunoglobulin G1 kappa (IgG1κ) human monoclonal antibody against CD38 antigen			tumor growth inhibition			significant tumor growth inhibition			1043.9 ± 159.1	29%	1443.7 ± 276.4	3%
